EP0172581B1, “Disaccharide derivatives” (DAIICHI SEIYAKU CO., LTD., priority 1984, dated 1986)
Like-named read-outs stand apart in the source and are kept apart here.

Legend:
Japanese white rabbits = type: in vivo; settings: for Number of Necrosed Animals/Number of Tested Animals: 100 µg LPS intravenously 20 hours later
Experimental: The local Shwartzman reaction test (Test I) is examined to determine the phenomenon of necrosis, at the site where a test compound was injected, induced by intravenous injection of lipopolysaccharide (hereinafter referred to as LPS) after 20 hours from intracutaneous injection of the test compound to test animals, preferably in rabbits.
The test on Shwartzman reaction specific to endotoxin was carried out as follows using Japanese white rabbits (female, weighing around 3 kg). That is, Japanese domestic white rabbits were intracutaneously injected with the test compound. Twenty hours later, 100 µg of LPS extracted from Salmonella minnesota R595, Re-mutant was intravenously injected to each rabbit. The Shwartzman reaction-induction activity was expressed in terms of number of animals that suffered from hemorrhagic necrosis at the site that had been prepared by intracutaneous injection of the test compound.

[1] = test system: isolated murine lymphocytes (splenocytes); assay: Test on mitogenicity ([³H]-labeled thymidine uptake); type: cell-based, BALB/c nu/nu mice; settings: T/C, 48 hours incubation
Experimental: Spleen of BALB/c nu/nu mice (male; 8-week old) was minced, and lymphocytes collected from the minced spleen were incubated with graded doses of test compounds in RPMI 1640 medium without fetal bovine serum at 37°C at a concentration of 1 x 10⁵ to 1 x 10⁶ lymphocytes per mℓ for 48 hours. Twenty-four hours before the completion of the incubation, [³H]-labeled thymidine (manufactured by New England Nuclear) was added to the culture. After the completion of the incubation, cells were collected on glass micro-fiber paper and dried, and the radioactivity of [³H]-labeled thymidine incorporated into the cells was measured. The ratio of thymidine uptake in the test culture to which the test compound had been added to that in the respective control culture was determined as a stimulation index. The higher the stimulation index, the higher the mitogenicity.

[2] = test system: clotting enzyme of Tachypleus tridentatus (horseshoe crab) amoebocytes; assay: Test III - Limulus test (toxicolor test); type: biochemical; settings: activity of 1 mg test compound converted to amount of LPS from E. coli 0111:B4
Description: Also, the compounds of this invention are very useful as a standard reagent for determination of endotoxin in the samples to be tested, and their activity has been confirmed by the local Shwartzman reaction test (Test I in Test Example 3), the pyrogenicity test (Test II in Test Example 3), and the activation of clotting enzyme of Tachypleus tridentatus (horseshoe crab) amoebocytes, i.e., Limulus test (Test III in Test Example 3).
The pyrogenicity of the compounds of this invention was also determined by Limulus test (toxicolor test). That is, the test compound was dissolved in a pyrogen-free 0.1% (vol/vol) triethylamine aqueous solution to a concentration of 2 mg/mℓ and diluted with pyrogen-free distilled water to a concentration of 4 X 10⁻¹ mg/mℓ. Subsequently, dilute aqueous solutions having concentrations of from 4 X 10⁻¹ mg/mℓ to 4 × 10⁻¹⁰ mg/mℓ were prepared by serial 10-fold dilution. […] Thereafter, 0.5 mℓ of sodium nitrite was added to the culture, and after stirring 0.1 mℓ each of ammonium sulfamate and N-(1-naphthyl)-ethylenediamine were added thereto to develop a color, and absorbance at a wavelength of 545 nm was determined. […]

[3] = test system: Japanese domestic white rabbits; assay: Test II - test on pyrogenicity (Japanese Pharmacopoeia); type: in vivo; settings: for Number of Febrile Animals/Number of Tested Animals: 0.1 µg/kg intravenously, febrile = temperature increase of 0.6°C or more
Experimental: The pyrogenicity of the compounds of this invention was determined in terms of body temperature increase in rabbits after intravenous injection of the test compound in accordance with the test method of pyrogenicity defined in Japanese Pharmacopoeia. That is, the rectal temperatures of Japanese domestic white rabbits (body weight: 2 to 2.5 kg) were measured 3 times at one-hour intervals. When the temperature in the second and third measurements were substantially equal, the third temperature was taken as a reference temperature. Within 15 minutes after the third measurement, the test compound dissolved in pyrogen-free distilled water was injected in the ear vein, and the rectal temperature was measured 3 times at one-hour intervals after injection. A difference between the reference temperature and the maximum temperature was taken as an increase of body temperature, and the pyrogenicity of the test compound was expressed by the number of febrile animals showing a temperature increase of 0.6°C or more.

SMILES	Number of Necrosed Animals/Number of Tested Animals (Japanese white rabbits; 20 µg/site intracutaneously)	Stimulation Index ±S.E. ([1]; 0.01 µg/mℓ test compound added)	Stimulation Index ±S.E. ([1]; 0.1 µg/mℓ test compound added)	Stimulation Index ±S.E. ([1]; 1 µg/mℓ test compound added)	Converted LPS Amount [2]	Number of Febrile Animals/Number of Tested Animals [3]	Number of Necrosed Animals/Number of Tested Animals (Japanese white rabbits; 80 µg/site intracutaneously)	reaction in Test I (local Shwartzman reaction) (Japanese white rabbits; summary in words)	reaction in Test II (pyrogenicity) ([3]; summary in words)
CCCCCCCCCCCCCC(=O)O[C@H](CCCCCCCCCCC)CC(=O)O[C@@H]1[C@@H](NC(=O)C[C@@H](CCCCCCCCCCC)OC(=O)CCCCCCCCCCC)[C@H](OC[C@H]2O[C@H](OP(=O)(O)O)[C@H](NC(=O)C[C@H](O)CCCCCCCCCCC)[C@@H](OC(=O)C[C@H](O)CCCCCCCCCCC)[C@@H]2O)O[C@H](CO)[C@H]1OP(=O)(O)O [Compound of Present Invention, 6-O-{2-Deoxy-2-[(R)-3-dodecanoyloxytetradecanoylamino]-3-O-[(R)-3-tetradecanoyloxytetradecanoyl]-4-O-phosphono-β-D-glucopyranosyl}-2-deoxy-2-[(R)-3-hydroxytetradecanoylamino]-3-O-[(R)-3-hydroxytetradecanoyl]-1-O-phosphono-α-D-glucopyranose]	2/3	4.06 ± 0.35	9.05 ± 0.70	11.76 ± 0.13	2.38 mg	3/4	–	–	–
CCCCCCCCCCC[C@@H](O)CC(=O)N[C@H]1[C@H](OC[C@H]2O[C@H](OP(=O)(O)O)[C@H](NC(=O)C[C@H](O)CCCCCCCCCCC)[C@@H](OC(=O)C[C@H](O)CCCCCCCCCCC)[C@@H]2O)O[C@H](CO)[C@@H](OP(=O)(O)O)[C@@H]1OC(=O)C[C@H](O)CCCCCCCCCCC [Control Compound 1, 6-O-{2-Deoxy-2-[(R)-3-hydroxytetradecanoylamino]-3-O-[(R)-3-hydroxytetradecanoyl]-4-O-phosphono-β-D-glucopyranosyl}-2-deoxy-2-[(R)-3-hydroxytetradecanoylamino]-3-O-[(R)-3-hydroxytetradecanoyl]-1-O-phosphono-α-D-glucopyranose]	–	–	–	–	1.34 mg	0/3	0/3	negative	negative
